Results published in patent US20100068208A1, “Degranulation inhibitor” (priority 2005, published 2010).
Like-named read-outs stand apart in the source and are kept apart here.

How the values were obtained:
TGR12 = format: cell-based, human; details: for EC50: CHO-TGR12, read-out: EC50 in the calcium increasing effect on CHO-TGR12
Experimental: CHO/dhfr^− cells (hereinafter CHO) were incubated in α-MEM (Invitrogen) supplemented with 10% fetal calf serum. After a termination codon in the TGR12-encoding nucleotide sequence was removed, a nucleotide sequence ligated with the nucleotide sequence encoding GFP (Wako Pure Chemical) [hereinafter briefly referred to as TGR12-GFP (DNA having the nucleotide sequence represented by SEQ ID NO: 31)] was incorporated into vector plasmid pAKKO-111H (the same vector plasmid as pAKKO1.11H described in Biochim. Biophys. Acta, 1219, 251-259 (1994)) for animal cell expression, and the vector plasmid was stably expressed to establish TGR12-GFP-expressed CHO cell line (hereinafter CHO-TGR12). CHO-TGR12 was incubated in nucleic acid-free α-MEM medium (Invitrogen) containing 10% dialyzed fetal calf serum.
CHO-TGR12 was plated in a 96-well plate at a density of 30,000 cells/well. After incubation overnight, the medium was discarded and 100 μL/well of assay buffer [Hank's Balanced Salt Solution (Invitrogen), 20 mM HEPES (Dojin Chemical Laboratory) and 2.5 mM Probenecid (Sigma)] containing 4 μM Fluo3-AM (Dojin Chemical Laboratory) was added, which was then allowed to stand for an hour at 37° C. […] After the cells were washed with assay buffer, fluorescence reflecting changes in intracellular calcium levels was assayed on FLIPR (Molecular Device). Ten seconds after initiation of the assay, 50 μL of a sample was added at a rate of 50 μL/second. Fluorescence measurement was taken every 1 second during the first 60 seconds and then every 6 seconds during the next 120 seconds; the highest fluorescence intensity over a 3 minute period was taken as the maximum activity under the stimulation condition, representing the mean value of 3 wells. The EC50 values were determined using Graphpad PRISM 4 (Graphpad Software).

RBL-2H3 = test: Intracellular calcium increasing activity in RBL2H3 (FLIPR); format: cell-based; design: unit not given here
Experimental: (§1) RBL-2H3 (hereinafter RBL2H3) was incubated in α-MEM (Invitrogen) supplemented with 10% fetal calf serum. Vector plasmid pcDNA3.1 for animal cell expression, in which the nucleotide sequence containing the initiation codon to the termination codon of human TGR12 (DNA having the nucleotide sequence represented by SEQ ID NO: 32) was incorporated, was stably expressed in RBL-2H3 to establish human TGR12-expressed RBL-2H3 cell line (hereinafter RBL2H3-TGR12). RBL2H3-TGR12 was incubated in α-MEM (Invitrogen) supplemented with 10% fetal calf serum and 200 μg/mL of Geneticin.
(§2) The intracellular calcium increasing activity was assayed as follows. RBL2H3 and RBL2H3-TGR12 were plated in a 96-well plate at a density of 40,000 cells/well and incubated overnight. The medium was then discarded and 100 μL/well of 4 μM Fluo3-AM (Dojin Kagaku)-containing assay buffer [Hank's Balanced Salt Solution (Invitrogen), 20 mM HEPES (Dojin Kagaku) and 2.5 mM Probenecid (Sigma)] was added. The mixture was allowed to stand for an hour at 37° C. Various TGR12 (Peptide Institute, Inc.) or calcium ionophore A23187 (Wako Pure Chemical) was diluted in 0.05% CHAPS-containing assay buffer. After the cells were washed with the assay buffer, fluorescence emitted with changes in intracellular calcium was measured using FLIPR (Molecular Device). A sample, 50 μL, was added at a rate of 50 μL/sec. 10 seconds after initiation of the assay. Fluorescence was measured every 1 second during the first 60 seconds and every 6 seconds during the next 120 seconds. The highest fluorescence intensity during 3 minutes was made the maximum activity under the stimulation conditions, which was taken as an average of 3 wells. The EC50 values were calculated using Graphpad PRISM 4 (Graphpad Software).

human TGR12 = target: T1, human TGR12 (Homo sapiens, UniProt Q96LB1); test: Intracellular calcium increasing activity in RBL2H3-TGR12 (FLIPR); format: cell-based
T1 construct: expressed in transfected cells
T1 sequence (Q96LB1 1-330): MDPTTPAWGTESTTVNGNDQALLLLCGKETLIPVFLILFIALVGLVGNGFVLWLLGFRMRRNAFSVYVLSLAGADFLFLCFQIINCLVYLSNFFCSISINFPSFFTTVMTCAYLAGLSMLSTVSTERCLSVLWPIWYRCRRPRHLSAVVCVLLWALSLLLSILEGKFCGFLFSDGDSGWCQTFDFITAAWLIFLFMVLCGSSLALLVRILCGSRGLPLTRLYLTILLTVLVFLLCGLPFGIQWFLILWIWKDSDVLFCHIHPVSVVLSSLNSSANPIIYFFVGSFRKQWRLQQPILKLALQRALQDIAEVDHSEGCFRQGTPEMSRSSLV
Experimental: as §1, §2

[1] = CHO-TGR12, 0.3 nM, highest fluorescence intensity over 3 minutes

SMILES	maximum activity in the calcium increasing effect (TGR12; [1])	maximum activity in the calcium increasing effect (TGR12; CHO-TGR12, 3 nM)	maximum activity in the calcium increasing effect (TGR12; CHO-TGR12, 30 nM)	maximum activity in the calcium increasing effect (TGR12; CHO-TGR12, 300 nM)	maximum activity in the calcium increasing effect (TGR12; CHO-TGR12, 3000 nM)	EC50 (TGR12) [nM]	maximum activity in the calcium increasing effect (RBL-2H3; RBL2H3, 1 nM)	maximum activity in the calcium increasing effect (RBL-2H3; RBL2H3, 10 nM)	maximum activity in the calcium increasing effect (RBL-2H3; RBL2H3, 100 nM)	maximum activity in the calcium increasing effect (RBL-2H3; RBL2H3, 1 μM)	maximum activity in the calcium increasing effect (RBL-2H3; RBL2H3, 10 μM)	maximum activity in the calcium increasing effect (human TGR12; RBL2H3-TGR12, 1 nM)	maximum activity in the calcium increasing effect (human TGR12; RBL2H3-TGR12, 10 nM)	maximum activity in the calcium increasing effect (human TGR12; RBL2H3-TGR12, 100 nM)	maximum activity in the calcium increasing effect (human TGR12; RBL2H3-TGR12, 1 μM)	maximum activity in the calcium increasing effect (human TGR12; RBL2H3-TGR12, 10 μM)
CC[C@H](C)[C@H](NC(=O)CNC(=O)[C@H](CC(=O)O)NC(=O)[C@H](CO)NC(=O)[C@@H](N)Cc1c[nH]cn1)C(=O)N[C@@H](Cc1ccccc1)C(=O)N[C@H](C(=O)N[C@@H](CC(=O)O)C(=O)N[C@@H](CO)C(=O)N[C@@H](Cc1ccc(O)cc1)C(=O)N[C@@H](CO)C(=O)N[C@@H](CCCNC(=N)N)C(=O)N[C@@H](Cc1ccc(O)cc1)C(=O)N[C@@H](CCCNC(=N)N)C(=O)N[C@@H](CCCCN)C(=O)N[C@@H](CCC(N)=O)C(=O)N[C@@H](CCSC)C(=O)N[C@@H](C)C(=O)N[C@H](C(=O)N[C@@H](CCCCN)C(=O)N[C@@H](CCCCN)C(=O)N[C@@H](Cc1ccc(O)cc1)C(=O)N[C@@H](CC(C)C)C(=O)N[C@@H](C)C(=O)N[C@@H](C)C(=O)N[C@H](C(=O)N[C@@H](CC(C)C)C(N)=O)C(C)C)C(C)C)[C@@H](C)O [PACAP-27]	48	58	939	23030	23728	~93	47	37	63	59	45	40	29	5300	11494	12667
CC(C)C[C@H](NC(=O)[C@H](C)NC(=O)[C@H](Cc1c[nH]c2ccccc12)NC(=O)[C@H](CCCCN)NC(=O)[C@H](CC(N)=O)NC(=O)[C@H](Cc1c[nH]c2ccccc12)NC(=O)[C@H](CCCCN)NC(=O)[C@H](CCCCN)NC(=O)[C@H](CCCNC(=N)N)NC(=O)[C@@H](N)Cc1ccccc1)C(=O)N[C@@H](CO)C(=O)N[C@@H](CCCNC(=N)N)C(N)=O [PAMP-12, proadrenomedullin N-terminal 20 peptide (9-20)]	255	1617	22291	24088	23743	~98	52	52	35	44	43	41	2088	11110	12039	12331
CC[C@H](C)[C@H](NC(=O)[C@H](CO)NC(=O)[C@H](CC(N)=O)NC(=O)[C@H](CC(C)C)NC(=O)[C@H](Cc1ccc(O)cc1)NC(=O)[C@H](CCCCN)NC(=O)[C@H](CCCCN)NC(=O)[C@@H](NC(=O)[C@H](C)NC(=O)[C@H](CCSC)NC(=O)[C@H](CCC(N)=O)NC(=O)[C@H](CCCCN)NC(=O)[C@H](CCCNC(=N)N)NC(=O)[C@H](CC(C)C)NC(=O)[C@H](CCCNC(=N)N)NC(=O)[C@@H](NC(=O)[C@H](Cc1ccc(O)cc1)NC(=O)[C@H](CC(N)=O)NC(=O)[C@H](CC(=O)O)NC(=O)[C@@H](NC(=O)[C@H](Cc1ccccc1)NC(=O)[C@@H](NC(=O)[C@H](C)NC(=O)[C@H](CC(=O)O)NC(=O)[C@H](CO)NC(=O)[C@@H](N)Cc1c[nH]cn1)C(C)C)[C@@H](C)O)[C@@H](C)O)C(C)C)C(=O)N[C@@H](CC(C)C)C(=O)N[C@@H](CC(N)=O)C(N)=O [VIP, vasoactive intestinal polypeptide]	56	60	16	11153	24007	~305										
CSCC[C@H](NC(=O)[C@H](CCCNC(=N)N)NC(=O)[C@@H](N)CC(=O)O)C(=O)N1CCC[C@H]1C(=O)N[C@H]1CSSC[C@@H](C(=O)N[C@@H](CCCCN)C(=O)O)NC(=O)[C@H](CO)NC(=O)[C@H](CO)NC(=O)[C@H](Cc2ccccc2)NC(=O)[C@H]([C@@H](C)O)NC(=O)[C@H](CCCCN)NC(=O)[C@H](Cc2c[nH]c3ccccc23)NC(=O)[C@H](Cc2ccccc2)NC(=O)[C@H](Cc2ccccc2)NC(=O)[C@H](CC(N)=O)NC(=O)[C@H](CCCNC(=N)N)NC1=O [cortistatin-17]	67	54	94	17914	23647		67	78	54	49	52	−2	33	1574	11193	12762
